Several values for one entry are separate records, joined by “and”; a condition that tells them apart may be missing. Equal values may be shown once. Read-outs that look alike come from different tables or passages of the source.
What was measured:
BRD4 = BRD4 (Homo sapiens, UniProt O60885); experiment: Western blot of BRD4 levels after cellular dosing; conditions: for BRD4 level, Western blot quantification (DMSO = 100): 1 uM; for BRD4 level relative to DMSO (100%): U2OS KO/Rescue, 1µM, 24 h
BRD3 = BRD3 (Homo sapiens, UniProt Q15059); experiment: Western blot of BRD3 levels after cellular dosing
BRD3, sequence (Q15059 whole entry): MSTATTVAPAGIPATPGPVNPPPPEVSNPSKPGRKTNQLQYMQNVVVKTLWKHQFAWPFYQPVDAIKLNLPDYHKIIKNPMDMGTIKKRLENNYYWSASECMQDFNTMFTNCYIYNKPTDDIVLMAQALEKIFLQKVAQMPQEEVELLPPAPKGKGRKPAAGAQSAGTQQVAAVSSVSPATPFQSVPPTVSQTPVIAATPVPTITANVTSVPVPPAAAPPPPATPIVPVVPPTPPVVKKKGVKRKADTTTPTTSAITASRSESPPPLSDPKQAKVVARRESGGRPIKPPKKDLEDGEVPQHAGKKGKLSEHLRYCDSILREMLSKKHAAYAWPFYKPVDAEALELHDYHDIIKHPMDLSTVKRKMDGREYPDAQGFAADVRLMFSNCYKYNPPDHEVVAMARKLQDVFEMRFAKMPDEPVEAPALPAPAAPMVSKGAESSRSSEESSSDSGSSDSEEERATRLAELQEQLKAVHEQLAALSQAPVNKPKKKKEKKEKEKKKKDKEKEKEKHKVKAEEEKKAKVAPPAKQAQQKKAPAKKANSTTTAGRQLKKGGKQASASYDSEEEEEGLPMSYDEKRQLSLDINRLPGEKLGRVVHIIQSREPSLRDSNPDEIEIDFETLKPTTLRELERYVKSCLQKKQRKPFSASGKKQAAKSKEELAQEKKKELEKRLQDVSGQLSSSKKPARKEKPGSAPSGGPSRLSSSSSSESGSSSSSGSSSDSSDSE

BRD2 = BRD2 (Homo sapiens, UniProt P25440); experiment: Western blot of BRD2 levels after cellular dosing
BRD2, sequence (P25440 whole entry): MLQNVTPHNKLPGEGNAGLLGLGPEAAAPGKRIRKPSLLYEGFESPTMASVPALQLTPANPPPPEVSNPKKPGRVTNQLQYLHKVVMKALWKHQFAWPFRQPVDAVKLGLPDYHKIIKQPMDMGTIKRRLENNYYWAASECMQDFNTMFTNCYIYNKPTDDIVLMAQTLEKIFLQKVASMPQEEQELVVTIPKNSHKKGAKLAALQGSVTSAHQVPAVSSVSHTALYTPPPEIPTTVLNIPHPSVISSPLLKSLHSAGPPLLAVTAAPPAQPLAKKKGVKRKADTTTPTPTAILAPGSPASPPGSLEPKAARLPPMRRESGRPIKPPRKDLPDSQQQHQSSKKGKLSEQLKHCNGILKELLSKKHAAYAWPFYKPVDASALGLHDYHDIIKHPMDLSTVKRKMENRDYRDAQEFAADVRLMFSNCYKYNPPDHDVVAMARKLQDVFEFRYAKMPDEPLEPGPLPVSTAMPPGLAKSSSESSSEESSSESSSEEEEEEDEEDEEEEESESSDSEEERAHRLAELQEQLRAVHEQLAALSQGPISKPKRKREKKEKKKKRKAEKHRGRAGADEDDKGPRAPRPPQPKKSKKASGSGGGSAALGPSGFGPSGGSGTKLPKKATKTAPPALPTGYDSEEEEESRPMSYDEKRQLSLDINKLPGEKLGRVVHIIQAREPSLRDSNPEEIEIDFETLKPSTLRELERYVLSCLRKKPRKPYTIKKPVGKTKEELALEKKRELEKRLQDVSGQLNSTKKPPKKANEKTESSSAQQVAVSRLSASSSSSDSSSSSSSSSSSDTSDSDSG

KLHDC2 = target: T1, KLHDC2 (Homo sapiens, UniProt Q9Y2U9); experiment: Western blot of KLHDC2 levels after cellular dosing; conditions: for KLHDC2 level, Western blot quantification (DMSO = 100): 1 uM; for KLHDC2 level relative to DMSO (100%): U2OS KO/Rescue
T1 sequence (Q9Y2U9 1-406): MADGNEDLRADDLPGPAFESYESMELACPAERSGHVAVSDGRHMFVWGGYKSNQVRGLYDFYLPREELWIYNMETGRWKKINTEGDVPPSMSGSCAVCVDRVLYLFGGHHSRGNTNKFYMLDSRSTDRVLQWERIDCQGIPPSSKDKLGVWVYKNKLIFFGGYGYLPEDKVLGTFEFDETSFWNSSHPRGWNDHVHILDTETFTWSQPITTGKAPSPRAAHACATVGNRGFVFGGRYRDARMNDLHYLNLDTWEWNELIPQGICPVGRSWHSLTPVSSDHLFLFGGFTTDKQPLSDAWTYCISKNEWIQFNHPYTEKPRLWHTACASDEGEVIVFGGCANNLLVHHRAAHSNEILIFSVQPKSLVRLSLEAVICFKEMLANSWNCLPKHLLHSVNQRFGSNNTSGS

KLHDC2^SBD [1] = target: T2, KLHDC2^SBD (Homo sapiens, UniProt Q9Y2U9); experiment: Thermal shift assay (Sypro Orange) probing stabilization of KLHDC2^SBD; assay type: binding; design: KLHDC2^SBD (15-361) and its Avi-tagged counterpart were expressed in E. coli Rosetta2 cells; 6XHis-MBP (N, cleaved yes); made in house; host or cells: E. coli Rosetta2; conditions: KLHDC2^SBD; ligand concentration not given
T2 sequence (Q9Y2U9 15-361): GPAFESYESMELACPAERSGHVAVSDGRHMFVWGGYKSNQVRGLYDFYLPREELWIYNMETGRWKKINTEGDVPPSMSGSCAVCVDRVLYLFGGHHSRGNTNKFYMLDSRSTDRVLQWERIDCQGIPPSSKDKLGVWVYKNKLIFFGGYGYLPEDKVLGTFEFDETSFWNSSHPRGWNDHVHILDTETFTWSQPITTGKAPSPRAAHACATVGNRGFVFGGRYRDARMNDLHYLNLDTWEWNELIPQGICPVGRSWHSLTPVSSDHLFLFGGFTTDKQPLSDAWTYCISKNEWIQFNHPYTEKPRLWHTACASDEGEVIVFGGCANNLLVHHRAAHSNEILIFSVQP
Procedure: In an attempt to identify non-peptide ligands that target KLHDC2’s substrate binding domain (SBD), we developed a thermal shift assay probing for stabilization of KLHDC2^SBD upon ligand addition. […] We utilized the thermal shift assay to screen ~ 9,000 molecules from a diverse collection of lead-like molecules (Figs. 1b, S1a, Supplementary Table 1).
Experimental compounds (200 nl each) were dispensed into a 384-well PCR plate using the Labcyte ECHO 655 T. The assay solution, comprising 0.5 μM KLHDC2, 25 mM HEPES, 200 mM NaCl, and 5% Sypro Orange at pH 7.5, was added to achieve a final volume of 20 μl. Negative control wells contained only DMSO, while positive control wells contained a di-Gly substrate peptide derived from SELK. Fluorescence measurements of Sypro Orange in each sample were taken using a Quantstudio 5 or Quantstudio 6, with temperatures ranging from 23 to 75 °C at a rate of 0.05 °C/s. Data analysis involved calculating thermal stability using the Boltzmann and first derivative minima equations in Thermo Scientific Protein Thermal Shift software v1.4. The resulting data were uploaded to CDD Vault for further analysis.
The 8892-compound lead-like one library was screened for its ability to stabilize KLHDC2 using a sypro orange-based thermal stability single-point assay.
Supplementary Ta b l e 1. Small molecule screening data
Category Parameter Description
Assay Ty p e o f assay Thermal Stability Screen
Primary measurement RFU of Sypro Orange
Key reagents Sypro Orange
Assay protocol Experimental compounds (200nl each) were dispensed into […]
a 384-well PCR plate using the Labcyte ECHO 655T. The […]
assay solution, comprising 0.5µM KLHDC2, 25mM HEPES,
200mM NaCl, and 5% Sypro Orange at pH 7.5, was added […]
to achieve a final volume of 20μl. Negative control wells […]
contained only DMSO, while positive control wells […]
contained peptide sub2. Fluorescence measurements of
Sypro Orange in each sample were taken using a
Quantstudio 5 or Quantstudio 6, with temperatures ranging […]
from 23 to 75°C at a rate of 0.05°C/second. Data analysis […]
involved calculating thermal stability using the Boltzmann […]
and first derivative minima equations in Thermo Scientific
Protein Thermal Shift software v1.4. The resulting data […]
were uploaded to CDD Vault for further analysis.
Library Library size 10041
Library composition The library was curated from compounds cherry picked […]
from St. Jude’s collection, representative of 80% of the […]
entire collection based on scaffold diversity (2D Molecular […]
fingerprinting based clustering) and structural properties: […]
lipophilicity (cLogP<3), size (MW 200-300 Da), and no […]
structural alerts (PAINS).
Source The compound collection was curated from multiple […]
vendors and stored on-site.
Screen Format The assay was completed in 26 384 well plates
Concentration(s) tested Compounds were tested at 100µM, and then a 16-point […]
serial dilution was performed on select compounds.
Plate controls DMSO as negative control and peptide sub2 as positive […]
Reagent/ compound dispensing system Multidrop Combi and Labcyte ECHO 655T […]
Detection instrument and software Quant Studio 5 and Quant Studio 6 and Thermo Scientific […]
Protein Thermal Shift software v1.4
Correction factors No correction factors were applied.

KLHDC2^SBD [2] = target: T2, KLHDC2^SBD; experiment: TR-FRET assay, competition with di-Gly degron peptide binding to KLHDC2^SBD; design: KLHDC2^SBD (15-361) and its Avi-tagged counterpart were expressed in E. coli Rosetta2 cells; 6XHis-MBP (N, cleaved yes); made in house; host or cells: E. coli Rosetta2; conditions: inhibition of KLHDC2^SBD binding to a di-Gly degron peptide; read-out: TR-FRET IC50
Procedure: TR-FRET assays were carried out in black 384-well microtiter plates at a final volume of 20 μL per well. An assay cocktail was prepared as a mixture of 50 nM Biotin-KLHDC2 SBD, 20 nM AlexaFluor488-RIC8B peptide, 2.5 nM Tb-Streptavidin (ThermoFisher) in assay buffer (25 mM HEPES, 100 mM NaCl, 0.1% Triton X-100, 0.5 mM DTT, pH 7.5). The assay cocktail was incubated for thirty-minutes at room temperature and 20 μl distributed to assay plates. Molecules were distributed to the plates at the indicated concentration and the assay mixture was incubated for 1 h at room temperature prior to measuring the TR-FRET signal with a PHERAstar FS plate reader (BMG Labtech) equipped with modules for excitation at 337 nm and emissions at 490 and 520 nm. The integration start was set to 100 µs and the integration time to 200 µs. The number of flashes was fixed at 100. The ratio of 520/490 was used as TR-FRET signal in calculations. Assay endpoints were normalized to 100% (buffer only) and used for curve fitting in Prism.

[3] = U2OS, 24 h, read-out: BRD3 level relative to DMSO (100%), U2OS KO/Rescue, 1µM, 24 h, Fig 6d
[4] = U2OS, 24 h, read-out: BRD2 level relative to DMSO (100%), U2OS KO/Rescue, 1µM, 24 h, Fig 6d
[5] = U2OS, 24 h, read-out: BRD3 level relative to DMSO (100%), U2OS KO/Rescue, 1µM, 24 h, Fig 6c
[6] = U2OS, 24 h, read-out: BRD2 level relative to DMSO (100%), U2OS KO/Rescue, 1µM, 24 h, Fig 6c

NS(=O)(=O)OC[C@@H]1C[C@@H](n2ccc3c(N[C@H]4CCc5ccccc54)ncnc32)C[C@@H]1O [MLN4924, reference compound]
BRD4 level, Western blot quantification (DMSO = 100) (BRD4; Fig 6d): 136.422 and 116.069 | BRD4 level relative to DMSO (100%) (BRD4; Fig 6d): 130 +/- 14% | remaining activity at 1 µM (BRD3; [3]): 120 ± 23% | remaining activity at 1 µM (BRD2; [4]): 170 ± 21% | KLHDC2 level, Western blot quantification (DMSO = 100) (KLHDC2; Fig 6d): 3372.82 and 2800.12 | KLHDC2 level relative to DMSO (100%) (KLHDC2; 1µM, 24 h, Fig 6d): 3090 +/- 404%

O=C(O)CNC(=O)Cc1csc(-c2cccc3ccncc23)n1 [SJ46412]
Thermal shift ΔTm (KLHDC2^SBD [1]): 1.8 ± 0.08 °C | IC50 (KLHDC2^SBD [2]): 20.3 ± 0.8 µM

COc1ccc2cc(-c3nc(CC(=O)NCC(=O)O)cs3)ccc2c1 [SJ46413]
Thermal shift ΔTm (KLHDC2^SBD [1]): 3.9 ± 0.07 °C | IC50 (KLHDC2^SBD [2]): 10.3 ± 0.2 µM

O=C(O)CNC(=O)Cc1csc(-c2cccc3cccnc23)n1 [SJ46414]
Thermal shift ΔTm (KLHDC2^SBD [1]): 2.7 ± 0.3 °C | IC50 (KLHDC2^SBD [2]): 7.1 ± 0.2 µM

O=C(O)CNC(=O)Cc1csc(-c2cccc3ccccc23)n1 [SJ46415]
Thermal shift ΔTm (KLHDC2^SBD [1]): 3.7 ± 0.05 °C | IC50 (KLHDC2^SBD [2]): 9.8 ± 0.1 µM

O=C(O)CNC(=O)Cc1csc(-c2ccc3ccccc3c2F)n1 [SJ46416]
Thermal shift ΔTm (KLHDC2^SBD [1]): 6.0 ± 0.1 °C | IC50 (KLHDC2^SBD [2]): 1.8 ± 0.1 µM

COc1ccc2ccc(-c3nc(CC(=O)NCC(=O)O)cs3)cc2c1 [SJ46417]
Thermal shift ΔTm (KLHDC2^SBD [1]): 4.3 ± 0.1 °C | IC50 (KLHDC2^SBD [2]): 1.7 ± 0.06 µM

Cc1sc2c(c1C)C(c1ccc(Cl)cc1)=N[C@@H](CC(=O)N1CCN(CCOc3cccc4ccc(-c5nc(CC(=O)NCC(=O)OCc6ccccc6)cs5)cc34)CC1)c1nnc(C)n1-2 [SJ48087]
BRD4 level relative to DMSO (100%) (BRD4; Fig 6c): 101 +/- 11% | remaining activity at 1 µM (BRD3; [5]): 89 ± 7.3% | remaining activity at 1 µM (BRD2; [6]): 90 ± 4% | KLHDC2 level relative to DMSO (100%) (KLHDC2; 1µM, 24 h, Fig 6c): 221 +/- 27%

Cc1sc2c(c1C)C(c1ccc(Cl)cc1)=N[C@@H](CC(=O)N1CCN(CCOc3cccc4ccc(-c5nc(CC(=O)NCC(=O)OC6CCCC6)cs5)cc34)CC1)c1nnc(C)n1-2 [SJ48088]
BRD4 level, Western blot quantification (DMSO = 100) (BRD4; Fig 6c): 85.9664 and 71.4338 | BRD4 level, Western blot quantification (DMSO = 100) (BRD4; Fig 6d): 72.2613 and 75.636 | BRD4 level relative to DMSO (100%) (BRD4; Fig 6c): 79 +/- 9.6% | BRD4 level relative to DMSO (100%) (BRD4; Fig 6d): 74 +/- 2.5% | remaining activity at 1 µM (BRD3; U2OS, 24 h, read-out: BRD3 level relative to DMSO (100%), U2OS KO/Rescue, 1µM + co-dosing 1µM MLN4924, 24 h, Fig 6d): 120 ± 6.2% | remaining activity at 1 µM (BRD3; [5]): 46 ± 1.5% | remaining activity at 1 µM (BRD3; [3]): 24 ± 4.6% | remaining activity at 1 µM (BRD3; read-out: BRD3 level, Western blot quantification (DMSO = 100), Fig 6c, 1 uM): 47.1% | remaining activity at 1 µM (BRD3; read-out: BRD3 level, Western blot quantification (DMSO = 100), Fig 6d, 1 uM): 20.7% | remaining activity at 1 µM (BRD2; U2OS, 24 h, read-out: BRD2 level relative to DMSO (100%), U2OS KO/Rescue, 1µM + co-dosing 1µM MLN4924, 24 h, Fig 6d): 270 ± 67% | remaining activity at 1 µM (BRD2; [6]): 83 ± 9.7% | remaining activity at 1 µM (BRD2; [4]): 78 ± 7.4% | remaining activity at 1 µM (BRD2; read-out: BRD2 level, Western blot quantification (DMSO = 100), Fig 6c, 1 uM): 75.6% | remaining activity at 1 µM (BRD2; read-out: BRD2 level, Western blot quantification (DMSO = 100), Fig 6d, 1 uM): 73.2% | KLHDC2 level, Western blot quantification (DMSO = 100) (KLHDC2; Fig 6c): 472.526 and 740.895 | KLHDC2 level, Western blot quantification (DMSO = 100) (KLHDC2; Fig 6d): 1961.3 and 1506.23 | KLHDC2 level relative to DMSO (100%) (KLHDC2; 1µM + co-dosing 1µM MLN4924, 24 h, Fig 6d): 4837 +/- 513% | KLHDC2 level relative to DMSO (100%) (KLHDC2; 1µM, 24 h, Fig 6c): 606 +/- 190% | KLHDC2 level relative to DMSO (100%) (KLHDC2; 1µM, 24 h, Fig 6d): 1733 +/- 321%

O=C(O)CNC(=O)Cc1csc(-c2ccc3c(c2)NCCO3)n1 [SJ49356]
Thermal shift ΔTm (KLHDC2^SBD [1]): 1.3 ± 0.5 °C | IC50 (KLHDC2^SBD [2]): 8.2 ± 0.3 µM

Source: article PMC11470957, “Principles of paralog-specific targeted protein degradation engaging the C-degron E3 KLHDC2” (Nature Communications, 2024)
